In the assay the target is T1, human RNR (histidine tagged human M1 and human M2 proteins) (Homo sapiens, UniProt P23921).
T1 construct: made in house; host or cells: Escherichia coli
T1 sequence (P23921 1-792): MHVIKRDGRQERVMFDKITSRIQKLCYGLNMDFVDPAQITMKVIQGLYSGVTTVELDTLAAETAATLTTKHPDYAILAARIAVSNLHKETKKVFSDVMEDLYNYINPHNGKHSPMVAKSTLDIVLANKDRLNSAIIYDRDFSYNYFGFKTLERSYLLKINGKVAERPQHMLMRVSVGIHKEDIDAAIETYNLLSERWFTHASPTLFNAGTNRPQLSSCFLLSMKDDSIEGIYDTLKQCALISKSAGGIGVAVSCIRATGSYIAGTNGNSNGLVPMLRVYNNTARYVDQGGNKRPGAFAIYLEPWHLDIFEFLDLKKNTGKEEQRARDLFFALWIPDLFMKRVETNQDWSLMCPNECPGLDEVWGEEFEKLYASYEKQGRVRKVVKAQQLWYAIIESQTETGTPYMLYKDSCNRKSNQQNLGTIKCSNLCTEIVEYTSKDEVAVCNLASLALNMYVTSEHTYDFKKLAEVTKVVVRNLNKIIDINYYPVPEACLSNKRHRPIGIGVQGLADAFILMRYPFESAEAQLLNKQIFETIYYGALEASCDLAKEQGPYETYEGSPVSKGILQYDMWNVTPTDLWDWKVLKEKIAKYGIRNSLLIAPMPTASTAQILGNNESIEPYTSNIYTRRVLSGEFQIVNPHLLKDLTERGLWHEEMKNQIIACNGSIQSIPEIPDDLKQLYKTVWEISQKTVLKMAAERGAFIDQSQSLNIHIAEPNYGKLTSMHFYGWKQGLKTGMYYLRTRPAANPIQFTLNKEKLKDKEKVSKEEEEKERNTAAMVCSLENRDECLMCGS
The assay can be described thus: Human RNR inhibition effect (dCDP formation from CDP). The note with it: 10 μM CDP, 37° C. for 30 minutes, read-out: RNR inhibitory activity IC50. It is filed as biochemical. The gist of the method: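 His-tagged human M1 (isoform 1) and N-terminal 59-aa-truncated M2 (isoform 2), E. coli-expressed, Ni-purified, preincubated 20 min with compound (1% DMSO). Reaction with 10 μM CDP, 2 mM ATP, 0.24 mM NADPH, 6 mM DTT, 4 mM Mg acetate, 100 mM KCl, 50 mM HEPES pH 7.2, 30 min at 37° C. dCDP formed quantified by reverse-phase HPLC after heat stop.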

As a reminder, the IC50 is the concentration that gives 50% inhibition. On to `Cc1c(Br)ccc(F)c1[C@@H](C)[C@H](NS(=O)(=O)c1ccc(Br)cc1C(N)=O)c1n[nH]c(=O)o1` [Example 35, 5-bromo-2-(N-((1S,2R)-2-(3-bromo-6-fluoro-2-methylphenyl)-1-(5-oxo-4,5-dihydro-1,3,4-oxadiazol-2-yl)propyl)sulfamoyl)benzamide], for which the half-maximal inhibitory concentration (IC50) is 130 nM. With `Cc1c(Cl)ccc(F)c1[C@@H](C)[C@H](NS(=O)(=O)c1ccc(F)c2c1OCCC2(C)O)c1n[nH]c(=O)o1` (single isomer, unassigned) [Example 229B], the IC50 turned out to be 110 nM.

For `CC1CCc2cccc(C(C)[C@H](NS(=O)(=O)c3ccc(Br)cn3)c3n[nH]c(=O)o3)c21` (stereo partly drawn) [Example 48, 5-bromo-N-((1S)-2-(3-methyl-2,3-dihydro-1H-inden-4-yl)-1-(5-oxo-4,5-dihydro-1,3,4-oxadiazol-2-yl)propyl)pyridine-2-sulfonamide], the 50% inhibitory concentration (IC50) was determined as 600 nM. Regarding `Cc1ccc(F)c([C@@H](C)[C@H](NS(=O)(=O)c2ccc(Cl)cc2C(=O)NOCc2ccccc2)c2n[nH]c(=O)o2)c1C` [Example 282, N-(benzyloxy)-5-chloro-2-(N-((1S,2R)-2-(6-fluoro-2,3-dimethylphenyl)-1-(5-oxo-4,5-dihydro-1,3-oxadiazol-2-yl)propyl)sulfamoyl)benzamide], the IC50 is 910 nM.

Regarding `Cc1ccc(F)c([C@@H](C)[C@H](NS(=O)(=O)c2cccc3[nH]ccc23)c2n[nH]c(=O)o2)c1C` [Example 152, N-((1S,2R)-2-(6-fluoro-2,3-dimethylphenyl)-1-(5-oxo-4,5-dihydro-1,3,4-oxadiazol-2-yl)propyl)-1H-indole-4-sulfonamide], the IC50 worked out at 710 nM.

Turning to `CCc1ccc(F)c([C@@H](C)[C@H](NS(=O)(=O)c2ccc(Br)cc2C(N)=O)c2n[nH]c(=O)o2)c1C` [Example 96, 5-bromo-2-(N-((1S,2R)-2-(3-ethyl-6-fluoro-2-methylphenyl)-1-(5-oxo-4,5-dihydro-1,3,4-oxadiazol-2-yl)propyl)sulfamoyl)benzamide], the half-maximal inhibitory concentration (IC50) is 100 nM. Regarding `Cc1ccc(F)c([C@@H](C)[C@H](NS(=O)(=O)c2ccc(Cl)c(C(=O)N3CCOCC3)n2)c2n[nH]c(=O)o2)c1C` [Example 113, 5-chloro-N-((1S,2R)-2-(6-fluoro-2,3-dimethylphenyl)-1-(5-oxo-4,5-dihydro-1,3,4-oxadiazol-2-yl)propyl)-6-(moipholine4-carbonyl)pyridine-2-sulfonamide], the IC50 was found to be 60 nM. `[2H]C([2H])([2H])C1(O)CCOc2c(S(=O)(=O)N[C@H](c3n[nH]c(=O)o3)[C@H](C)c3c(F)ccc(Br)c3C)ccc(Cl)c21` (single isomer, unassigned) [Example 226A]: the 50% inhibitory concentration (IC50) turned out to be 50 nM. For `COc1c(S(=O)(=O)N[C@H](c2n[nH]c(=O)o2)[C@H](C)c2c(F)ccc3ccccc23)ccc(Cl)c1C(C)O` (stereo partly drawn) [Example 205, 4-chloro-N-((1S,2R)-2-(2-fluoronaphthalene-1-yl)-1-(5-oxo-4,5-dihydro-1,3,4-oxadiazol-2-yl)propyl)-3-(1-hydroxyethyl)-2-methoxybenzenesulfonamide], the IC50 was 80 nM. With `Cc1ccc(F)c([C@@H](C)[C@H](NS(=O)(=O)c2ccc(Cl)c3c2OCCN3CC(F)F)c2n[nH]c(=O)o2)c1C` [Example 102, 5-chloro-4-(2,2-difluoroethyl)-N-((1S,2R)-2-(6-fluoro-2,3-dimethylphenyl)-1-(5-oxo-4,5-dihydro-2,3,4-oxadiazol-2-yl)propyl)-3,4-dihydro-2H-benzo[b][1,4]oxazine-8-sulfonamide], the concentration for half-maximal inhibition (IC50) worked out at 140 nM. Turning to `Cc1ccc(F)c([C@@H](C)[C@H](NS(=O)(=O)c2cc(-c3nnco3)ccc2C(N)=O)c2n[nH]c(=O)o2)c1C` [Example 331, 2-(N-((1S,2R)-2-(6-fluoro-2,3-dimethylphenyl)-1-(5-oxo-4,5-dihydro-1,3,4-oxadiazol-2-yl)propyl)sulfamoyl)-4-(1,3,4-oxadiazol-2-yl)benzamide], the half-maximal inhibitory concentration (IC50) amounted to 90 nM.

Regarding `Cc1c(Cl)ccc(F)c1[C@@H](C)[C@H](NS(=O)(=O)c1ccc(Cl)c2c1OCCC2(C)N)c1n[nH]c(=O)o1` (single isomer, unassigned) [Example 330B], the IC50 is 460 nM. Turning to `COc1c(S(=O)(=O)N[C@H](c2n[nH]c(=O)o2)[C@H](C)c2c(F)ccc(C)c2C)ccc(Cl)c1C(C)OC(C)=O` (stereo partly drawn) [Example 144, 1-(6-chloro-3-(N-((1S,2R)-2-(6-fluoro-2,3-dimethylphenyl)-1-(5-oxo-4,5-dihydro-1,3,4-oxadiazol-2-yl)propyl)sulfamoyl)-2-methoxyphenyl)ethyl acetate], the IC50 was 170 nM. `Cc1ccc(F)c([C@@H](C)[C@H](NS(=O)(=O)c2ccc(Cl)c(C(=O)O)n2)c2n[nH]c(=O)o2)c1C` [Example 215, 3-chloro-6-(N-((1S,2R)-2-(6-fluoro-2,3-dimethylphenyl)-1-(5-oxo-4,5-dihydro-1,3,4-oxadiazol-2-yl)propyl)sulfamoyl)picolinic acid]: the IC50 turned out to be 190 nM. Consider `C[C@H](c1cccc2c1CCCC2)[C@H](NS(=O)(=O)c1ccc(Cl)cn1)c1n[nH]c(=O)o1` [Example 52], for which the 50% inhibitory concentration (IC50) stood at 770 nM. On to `Cc1ccc(F)c([C@@H](C)[C@H](NS(=O)(=O)c2cccc3c2OCCN3)c2n[nH]c(=O)o2)c1C` [Example 280, N-((1S,2R)-2-(6-fluoro-2,3-dimethylphenyl)-1-(5-oxo-4,5-dihydro-1,3,4-oxadiazol-2-yl)propyl)-3,4-dihydro-2H-benzo[b][1,4]oxazine-8-sulfonamide], for which the IC50 stood at 420 nM. Consider `Cc1ccc(F)c([C@@H](C)[C@H](NS(=O)(=O)c2ccc(Cl)cc2C(=O)NCCO)c2n[nH]c(=O)o2)c1C` [Example 248, 5-chloro-2-(N-((1S,2R)-2-(6-fluoro-2,3-dimethylphenyl)-1-(5-oxo-4,5-dihydro-1,3,4-oxadiazol-2-yl)propyl)sulfamoyl)-N-(2-hydroxyethyl)benzamide], for which the 50% inhibitory concentration (IC50) was determined as 270 nM. To `Cc1ccc(F)c([C@@H](C)[C@H](NS(=O)(=O)c2ccc(Cl)c3c2C(O)CCC3)c2n[nH]c(=O)o2)c1C` (stereo partly drawn) [Example 240, 4-chloro-N-((1S,2R)-2-(6-fluoro-2,3-dimethylphenyl)-1-(5-oxo-4,5-dihydro-1,3,4-oxadiazol-2-yl)propyl)-8-hydroxy-5,6,7,8-tetrahydronaphthalene-1-sulfonamide] belongs 910 nM; to `Cc1ccc(F)c([C@@H](C)[C@H](NS(=O)(=O)c2ccc(F)c3c2OCCC3O)c2n[nH]c(=O)o2)c1C` (single isomer, unassigned) [Example 230A], 120 nM; to `Cc1ccc(F)c([C@@H](C)[C@H](NS(=O)(=O)c2ccc(Cl)s2)c2n[nH]c(=O)o2)c1C` [Example 158, 5-chloro-N-((1S,2R)-2-(6-fluoro-2,3-dimethylphenyl)-1-(5-oxo-4,5-dihydro-1,3,4-oxadiazol-2-yl)propyl)thiophene-2-sulfonamide], 450 nM. Then `Cc1ccc(F)c([C@@H](C)[C@H](NS(=O)(=O)c2ccc3c(c2)C(=O)CCC3)c2n[nH]c(=O)o2)c1C` [Example 174, N-((1S,2R)-2-(6-fluoro-2,3-dimethylphenyl)-1-(5-oxo-4,5-dihydro-1,3,4-oxadiazol-2-yl)propyl)-8-oxo-5,6,7,8-tetrahydronaphthalene-2-sulfonamide], with 350 nM; and `Cc1ccc(F)c([C@@H](C)[C@H](NS(=O)(=O)c2c(F)cc(Cl)cc2F)c2n[nH]c(=O)o2)c1C` [Example 111, 4-chloro-2,6-difluoro-N-((1S,2R)-2-(6-fluoro-2,3-dimethylphenyl)-1-(5-oxo-4,5-dihydro-1,3,4-oxadiazol-2-yl)propyl)benzenesulfonamide], with 270 nM. Turning to `Cc1ccc(F)c([C@@H](C)[C@H](NS(=O)(=O)c2ccc(Cl)c(-c3cnn(C)c3)c2)c2n[nH]c(=O)o2)c1C` [Example 325, 4-chloro-N-((1S,2R)-2-(6-fluoro-2,3-dimethylphenyl)-1-(5-oxo-4,5-dihydro-1,3,4-oxadiazol-2-yl)propyl)-3-(1-methyl-1H-pyrazol-4-yl)benzenesulfonamide], the half-maximal inhibitory concentration (IC50) was determined as 220 nM. Turning to `COC(=O)c1cc(Br)cnc1S(=O)(=O)N[C@H](c1n[nH]c(=O)o1)[C@H](C)c1c(F)ccc(C)c1C` [Example 119, methyl 5-bromo-2-(N-((1S,2R)-2-(6-fluoro-2,3-dimethylphenyl)-1-(5-oxo-4,5-dihydro-1,3,4-oxadiazol-2-yl)propyl)sulfamoyl)nicotinate], the IC50 came out at 450 nM. Regarding `Cc1ccc(F)c([C@@H](C)[C@H](NS(=O)(=O)c2cccc3c2CCNC3)c2n[nH]c(=O)o2)c1C` [Example 281, N-((1S,2R)-2-(6-fluoro-2,3-dimethylphenyl)-1-(5-oxo-4,5-dihydro-1,3,4-oxadiazol-2-yl)propyl)-1,2,3,4-tetrahydroisoquinoline-5-sulfonamide], the IC50 turned out to be 760 nM.

The values are drawn from patent publication US20200405697A1, “Antitumor Agent” (Taiho Pharmaceutical Co., Ltd, priority 2017, published 2020).
